In US8173689B2 (Novartis AG, priority 2006, dated 2012):
Read-outs that look alike come from different tables or passages of the source.

Legend:
[1] = target: T1, full-length human CSF-1R receptor (Homo sapiens, UniProt P07333); experiment: In vitro inhibition of CSF-1R receptor tyrosine phosphorylation in transfected HEK293H cells stimulated with MCSF; type: cell-based; details: HEK293-H, tested at about 1 μM, read-out: pCSF1R percent inhibition
T1 construct: transfected with the full-length human CSF-1R receptor cloned in house; expressed in transfected cells; host or cells: HEK293H (Invitrogen Cat. #11631017)
Protocol: The lysate was then transferred to total CSF-1R antibody coated 96-well plates that had already been blocked with 3% Blocker A from Mesoscale discovery (MSD) for 2 hours and washed afterwards. Lysates were incubated overnight at 4° C. and the plates were then washed 4× with MSD Tris Wash Buffer. […] The plates were read on the Sector 6000 instrument (MSD). Raw data was imported in Abase and EC50s calculated with XL-fit data analysis software.

[2] = target: T2, cytoplasmic domain of the human CSF-1R (Homo sapiens, UniProt P07333); experiment: In vitro kinase assay for colony stimulating factor-1 receptor (AlphaScreen); type: biochemical; details: tested at about 1 μM, read-out: CSF-1R percent inhibition
T2 construct: Recombinant protein corresponding to the cytoplasmic domain of the human CSF-1R; purchased Invitrogen Corporation, Carlsbad, Calif; PV3249
T2 sequence (P07333 539-972 limits assumed): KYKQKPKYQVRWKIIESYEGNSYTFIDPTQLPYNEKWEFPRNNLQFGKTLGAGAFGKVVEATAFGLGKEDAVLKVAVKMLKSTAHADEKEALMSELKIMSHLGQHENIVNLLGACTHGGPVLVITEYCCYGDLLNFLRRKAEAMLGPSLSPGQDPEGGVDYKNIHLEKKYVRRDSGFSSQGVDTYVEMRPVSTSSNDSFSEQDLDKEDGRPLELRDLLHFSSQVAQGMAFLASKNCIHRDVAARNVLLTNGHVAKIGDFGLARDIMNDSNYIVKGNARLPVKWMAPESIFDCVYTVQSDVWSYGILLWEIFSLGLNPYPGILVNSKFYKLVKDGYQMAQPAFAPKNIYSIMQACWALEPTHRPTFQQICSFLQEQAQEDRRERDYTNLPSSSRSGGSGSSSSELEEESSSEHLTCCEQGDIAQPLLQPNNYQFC
How it was run: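 Tyrosine phosphorylation of a peptide substrate by 4 nM recombinant cytoplasmic-domain enzyme is measured at 1 μM ATP in Mn2+/Mg2+-containing Hepes buffer, pH 7.5. Detection uses PT66 AlphaScreen beads after overnight incubation.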

kinase domain of PDGFRβ = target: T3, kinase domain of PDGFRβ (Homo sapiens, UniProt P09619); experiment: Inhibition of PDGFRb kinase signaling in an in vitro biochemical assay (alphascreen); details: tested at about 1 μM, read-out: PDGFRβ percent inhibition
T3 construct: The kinase domain of PDGFRβ was assayed in 50 mM Hepes; purchased Invitrogen P3082

[3] = tested on: MNFS60 (murine AML cells); experiment: Cell viability assay in MCSF dependent MNFS60 cells (Cell Titer Glo); type: cell-based; details: Mus musculus, tested at about 1 μM, read-out: M-NFS-60 CP percent inhibition
How it was run: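 MNFS60 cells grown with 10 ng/ml MCSF (final) were exposed for 72 hrs at 37° C., 5% CO2 to 3-fold serial compound dilutions. Viable cells were measured by Cell Titer Glo luminescence, in triplicate, and EC50s were derived by curve fitting.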

kinase domain of cKIT = target: T4, kinase domain of cKIT (Homo sapiens, UniProt P10721); experiment: Inhibition of cKIT kinase signaling in an in vitro biochemical assay (alphascreen); details: tested at about 1 μM, read-out: cKit percent inhibition
T4 construct: The kinase domain of cKIT was assayed in 50 mM Hepes; purchased Upstate 14-559
T4 sequence (P10721 589-937 limits assumed): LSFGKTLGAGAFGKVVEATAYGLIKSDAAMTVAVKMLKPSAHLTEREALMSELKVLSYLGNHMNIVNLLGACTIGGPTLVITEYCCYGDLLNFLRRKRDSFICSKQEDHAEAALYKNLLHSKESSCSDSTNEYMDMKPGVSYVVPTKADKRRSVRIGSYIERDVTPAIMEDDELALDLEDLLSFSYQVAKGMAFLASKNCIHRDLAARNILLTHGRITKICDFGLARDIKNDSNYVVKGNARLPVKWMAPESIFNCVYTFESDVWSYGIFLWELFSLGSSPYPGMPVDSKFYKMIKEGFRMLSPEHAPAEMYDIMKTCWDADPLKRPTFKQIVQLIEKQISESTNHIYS

T3 sequence (P09619 600-962 limits assumed): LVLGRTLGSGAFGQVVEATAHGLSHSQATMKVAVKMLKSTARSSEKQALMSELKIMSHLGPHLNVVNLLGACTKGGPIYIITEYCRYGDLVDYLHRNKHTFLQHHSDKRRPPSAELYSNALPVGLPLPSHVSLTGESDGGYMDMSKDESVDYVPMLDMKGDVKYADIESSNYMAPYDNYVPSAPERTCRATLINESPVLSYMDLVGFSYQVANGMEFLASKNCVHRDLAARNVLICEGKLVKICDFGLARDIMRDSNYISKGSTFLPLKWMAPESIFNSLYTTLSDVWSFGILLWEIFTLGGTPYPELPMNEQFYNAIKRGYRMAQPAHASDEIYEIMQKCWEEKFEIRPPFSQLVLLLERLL
T1 sequence (P07333 20-972): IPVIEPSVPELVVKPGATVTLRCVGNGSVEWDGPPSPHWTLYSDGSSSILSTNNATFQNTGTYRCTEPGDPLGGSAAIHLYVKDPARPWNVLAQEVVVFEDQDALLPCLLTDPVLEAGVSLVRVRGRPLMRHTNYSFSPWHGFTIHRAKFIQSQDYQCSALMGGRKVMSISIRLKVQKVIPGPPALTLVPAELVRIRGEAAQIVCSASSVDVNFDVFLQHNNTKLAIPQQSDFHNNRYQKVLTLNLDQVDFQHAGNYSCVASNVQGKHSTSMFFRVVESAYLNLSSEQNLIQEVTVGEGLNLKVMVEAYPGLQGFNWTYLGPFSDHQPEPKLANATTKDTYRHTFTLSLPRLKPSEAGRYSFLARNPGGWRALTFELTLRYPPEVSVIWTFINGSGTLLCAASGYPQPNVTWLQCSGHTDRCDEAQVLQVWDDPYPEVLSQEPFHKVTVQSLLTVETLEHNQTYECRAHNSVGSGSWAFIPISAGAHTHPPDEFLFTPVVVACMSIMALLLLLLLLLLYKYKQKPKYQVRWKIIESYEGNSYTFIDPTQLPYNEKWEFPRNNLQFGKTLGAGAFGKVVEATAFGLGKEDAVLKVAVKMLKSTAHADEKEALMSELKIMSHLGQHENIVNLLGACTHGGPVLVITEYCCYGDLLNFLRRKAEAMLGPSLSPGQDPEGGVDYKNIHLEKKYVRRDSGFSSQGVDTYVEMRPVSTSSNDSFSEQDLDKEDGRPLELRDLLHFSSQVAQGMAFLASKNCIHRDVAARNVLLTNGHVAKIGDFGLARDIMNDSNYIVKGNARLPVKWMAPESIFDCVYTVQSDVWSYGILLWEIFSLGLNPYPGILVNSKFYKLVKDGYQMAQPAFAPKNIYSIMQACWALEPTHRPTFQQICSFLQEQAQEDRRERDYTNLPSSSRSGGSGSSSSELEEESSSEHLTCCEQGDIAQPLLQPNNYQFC

Compound	inhibition at 1 µM ([1]; HEK293H cells)	inhibition at 1 µM [2]	inhibition at 1 µM (kinase domain of PDGFRβ)	inhibition at 1 µM (kinase domain of cKIT)	inhibition at 1 µM ([1]; compounds of Table 3)	inhibition at 1 µM ([2]; compounds of Table 3)	inhibition at 1 µM (kinase domain of PDGFRβ; compounds of Table 3)	inhibition at 1 µM ([3]; compounds of Table 3)	inhibition at 1 µM (kinase domain of cKIT; compounds of Table 3)	inhibition at 1 µM ([3]; MNFS60 cells)	also measured
O[C@@H]1CCCC[C@H]1Nc1nc2ccc(Oc3ccnc(-c4cn[nH]c4)c3)cc2s1 [Example 360, (1R,2R)-2-(6-(2-(1H-pyrazol-4-yl)pyridin-4-yloxy)benzo[d]thiazol-2-ylamino)cyclohexanol]	98%	100%	16%	29%	–	–	–	–	–	–	inhibition at 1 µM ([3]; MCSF dependent MNFS60 cells): 100%
O[C@@H]1CCCC[C@H]1Nc1nc2ccc(Oc3ccnc(-c4ccc(N5CCOCC5)nc4)c3)cc2s1 [Cmpd 165, (1R,2R)-2-(6-(6'-morpholino-2,3'-bipyridin-4-yloxy)benzo[d]thiazol-2-ylamino)cyclohexanol]	–	–	–	–	98%	100%	83%	100%	83%	–	–
CCOc1ccccc1CNc1nc2ccc(Oc3ccnc(C(=O)NC)c3)cc2o1 [Compound 96, 4-[2-(2-Ethoxy-benzylamino)-benzooxazol-6-yloxy]-pyridine-2-carboxylic acid methylamide]	89%	99%	3%	33%	–	–	–	–	–	75%	–
O[C@@H]1CCCC[C@H]1Nc1nc2ccc(Oc3ccnc4cc(F)ccc34)cc2s1 [Example 229, (1R,2R)-2-(6-(7-fluoroquinolin-4-yloxy)benzo[d]thiazol-2-ylamino)cyclohexanol]	–	–	–	–	92%	100%	30%	80%	21%	–	–
CNC(=O)c1cc(Oc2ccc3nc(N[C@H](C)c4ccccc4OC)sc3c2)ccn1 [Compound 129, 4-{2-[(R)-1-(2-Methoxy-phenyl)-ethylamino]-benzothiazol-6-yloxy}-pyridine-2-carboxylic acid methylamide]	92%	99%	34%	92%	–	–	–	–	–	94%	–
COCCn1cc(-c2cc(Oc3ccc4nc(N[C@@H]5CCCC[C@H]5O)sc4c3)ccn2)cn1 [Example 260, (1R,2R)-2-(6-(2-(1-(2-methoxyethyl)-1H-pyrazol-4-yl)pyridin-4-yloxy)benzo[d]thiazol-2-ylamino)cyclohexanol]	–	–	–	–	98%	100%	0%	100%	25%	–	–
CNC(=O)c1cc(Oc2ccc3nc(NCc4ccccc4Cl)sc3c2)ccn1 [Compound 127, 4-[2-(2-Chloro-benzylamino)-benzothiazol-6-yloxy]-pyridine-2-carboxylic acid methylamide]	95%	100%	20%	81%	–	–	–	–	–	95%	–
CNC(=O)c1cc(Oc2ccc3nc(Nc4ccccc4-n4ccnc4C)oc3c2)ccn1 [Compound 47, 4-{2-[2-(2-Methyl-imidazol-1-yl)-phenylamino]-benzooxazol-6-yloxy}-pyridine-2-carboxylic acid methylamide]	–	13%	12%	–	83%	100%	4%	55%	0%	–	inhibition at 1 µM ([1]; compounds of Table 4): 79%; inhibition at 1 µM ([2]; compounds of Table 4): 100%; inhibition at 1 µM (kinase domain of PDGFRβ; compounds of Table 4): 31%; inhibition at 1 µM ([3]; compounds of Table 4): 58%; inhibition at 1 µM (kinase domain of cKIT; compounds of Table 4): 55%
CNC(=O)c1cc(Oc2ccc3nc(NCc4cccc(F)c4F)oc3c2)ccn1 [Compound 79, 4-[2-(2,3-Difluoro-benzylamino)-benzooxazol-6-yloxy]-pyridine-2-carboxylic acid methylamide]	94%	100%	0%	31%	–	–	–	–	–	57%	–
C[C@H](Nc1nc2ccc(Oc3ccnc(-c4nc5c([nH]4)CCCC5)c3)cc2s1)C1CCCCC1 [Example 271, (S)-N-(1-cyclohexylethyl)-6-(2-(4,5,6,7-tetrahydro-1H-benzo[d]imidazol-2-yl)pyridin-4-yloxy)benzo[d]thiazol-2-amine]	–	–	–	–	55%	98%	24%	54%	46%	–	–
CNC(=O)c1cc(Oc2ccc3nc(NC(CO)C4CCOCC4)sc3c2)ccn1 (stereo not drawn) [Compound 95]	–	–	–	–	65%	100%	2%	60%	0%	–	–
Cn1cc(-c2cc(Oc3ccc4nc(N[C@H]5CCCN(S(=O)(=O)C6CC6)C5)sc4c3)ccn2)cn1 [Example 373, (S)-N-(1-(cyclopropylsulfonyl)piperidin-3-yl)-6-(2-(1-methyl-1H-pyrazol-4-yl)pyridin-4-yloxy)benzo[d]thiazol-2-amine]	91%	101%	0%	51%	–	–	–	–	–	–	inhibition at 1 µM ([3]; MCSF dependent MNFS60 cells): 100%
O[C@H]1Cc2ccccc2[C@H]1Nc1nc2ccc(Oc3ccnc4ccccc34)cc2s1 [Example 237, (1R,2S)-1-(6-(quinolin-4-yloxy)benzo[d]thiazol-2-ylamino)-2,3-dihydro-1H-inden-2-ol]	–	–	–	–	94%	100%	13%	100%	24%	–	–
